Among the data in ChEMBL document CHEMBL5052820, “Organic compounds” (2019) are EC50 values, retold here.

Where a SMILES comes first, the peptide text is derived from it.

A short description of the assay: Activation of mouse GPR15 stably expressed in CHO cells expressing Aequorin and Galpha16 measured by luminiscence assay. The assay is classed as cell-based.

A word on the EC50: it is the concentration at which the effect is half-maximal. Read a low EC50 as an effect from little substance. `CC(C)C[C@H](NC(=O)[C@H](CCC(N)=O)NC(=O)[C@@H]1CCCN1C(=O)[C@H](CCCCN)NC(=O)[C@@H](N)CCC(N)=O)C(=O)N[C@@H](Cc1c[nH]c2ccccc12)C(=O)N[C@H](C(=O)N[C@H](C(=O)N1CCC[C@H]1C(=O)NCC(=O)N[C@@H](C)C(=O)N[C@@H](CC(C)C)C(=O)N1CCC[C@H]1C(=O)N[C@@H](CCC(N)=O)C(=O)N[C@H](C(=O)O)C(C)C)C(C)C)C(C)C` (H-QKPQLWVVPGALPQV-OH) had a concentration giving a half-maximal response (EC50) of 4.02 µM.
